Reference: patent EP0395313B1, “Tertiary alkyl functionalized piperazine derivatives” (AMERICAN HOME PRODUCTS CORPORATION, priority 1989, dated 1990)

Columns and labels:
D2 dopamine receptor = D2 dopamine receptor (Rattus norvegicus, UniProt P61169); assay: D2 dopamine receptor binding study with 3H-spiroperiodol in homogenized limbic brain tissue; details: read-out: Affinity for D2 Receptor % Inhibition
Experimental: The D2 dopamine receptor binding study was in accordance with a modification of the procedure of Field et al., Brain Res., 136, pp. 578-584 (1977) and Yamamura et al., eds., Neurotransmitter Receptor Binding, Raven Press, N.Y. (1978), wherein homogenized limbic brain tissue is incubated with ^3H-spiroperiodol and various concentrations of test compounds, filtered and washed and shaken with Hydrofluoro scintillation cocktail (National Diagnostics) and counted in a Packard 460CD scintillation counter.

[1] = target: T1, 5-HT1A serotonin receptor (Rattus norvegicus, UniProt P19327); assay: displacement of [3H] 8-OH DPAT from the 5-HT1A serotonin receptor (procedure of Hall et al.); format: binding; details: for IC50: [3H] 8-OH DPAT displacement, read-out: Affinity for 5HT1A Receptor IC50; for inhibition at 0.1 µM / inhibition at 1 µM: read-out: Affinity for 5HT1A Receptor % Inhibition
T1 sequence (P19327 1-422): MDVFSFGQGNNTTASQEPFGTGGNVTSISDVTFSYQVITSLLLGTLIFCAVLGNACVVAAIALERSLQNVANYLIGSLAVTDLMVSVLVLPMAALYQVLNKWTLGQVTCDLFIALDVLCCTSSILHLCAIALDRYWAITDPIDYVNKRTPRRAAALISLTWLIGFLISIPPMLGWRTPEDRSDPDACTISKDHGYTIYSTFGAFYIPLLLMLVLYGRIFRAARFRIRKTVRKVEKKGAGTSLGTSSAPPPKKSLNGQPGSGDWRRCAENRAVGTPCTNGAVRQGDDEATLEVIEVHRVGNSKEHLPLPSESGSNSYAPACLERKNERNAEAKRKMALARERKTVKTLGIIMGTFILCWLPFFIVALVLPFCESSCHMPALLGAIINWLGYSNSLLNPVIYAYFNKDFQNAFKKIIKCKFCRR
From the text: 8-OH DPAT (dipropylaminotetralin) from the 5-HT1A serotonin receptor by the procedure of Hall et al., J. Neurochem.

Chain of D2 dopamine receptor (P61169 whole entry): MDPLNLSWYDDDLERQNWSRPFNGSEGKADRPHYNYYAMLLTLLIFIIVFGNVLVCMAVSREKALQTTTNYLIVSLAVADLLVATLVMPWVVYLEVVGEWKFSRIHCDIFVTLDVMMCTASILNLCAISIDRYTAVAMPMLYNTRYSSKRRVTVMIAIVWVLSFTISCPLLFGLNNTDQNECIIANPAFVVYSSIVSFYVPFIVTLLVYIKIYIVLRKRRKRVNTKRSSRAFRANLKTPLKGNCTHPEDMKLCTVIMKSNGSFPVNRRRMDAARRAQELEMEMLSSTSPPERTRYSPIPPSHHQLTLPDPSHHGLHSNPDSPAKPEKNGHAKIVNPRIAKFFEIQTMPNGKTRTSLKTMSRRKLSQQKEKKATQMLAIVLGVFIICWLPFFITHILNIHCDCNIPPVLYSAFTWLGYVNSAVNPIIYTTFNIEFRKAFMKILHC

| inhibition at 10 µM (D2 dopamine receptor; at 10 µM) | IC50 [1] | inhibition at 0.1 µM [1] | inhibition at 1 µM [1] | inhibition at 0.1 µM (D2 dopamine receptor; at 0.1 µM) | inhibition at 1 µM (D2 dopamine receptor; at 1 µM) | Structure (SMILES) |
| --- | --- | --- | --- | --- | --- | --- |
| 38% | 11.4 nM | 90% | 100% |  |  | COc1ccccc1N1CCN(CC(Cc2ccccc2)C(=O)NC(C)(C)C)CC1 (racemic) [Example 3, N-Tertiary-butyl 2-[[4-(2-methoxyphenyl)piperazinyl]methyl]-3-phenyl-propanamide] |
|  | 25 nM | 69% | 86% | 8% | 32% | COc1ccccc1N1CCN(CC(C(=O)NC(C)(C)C)c2ccccc2)CC1 (racemic) [Example 2, N-Tertiary-butyl 3-[4-(2-methoxyphenyl)piperazinyl]-2-phenyl-propanamide] |
|  | 287 nM | 18% | 72% |  |  | COc1ccccc1N1CCN(CCC(=O)NC(C)(C)C)CC1 [Example 6, N-(1,1-Dimethylethyl)-3-[4-(2-methoxyphenyl)-1-piperazinyl]-propanamide] |
|  |  | 56% |  |  |  | COc1ccccc1N1CCN(CCC(=O)NC2(C)CCCCC2)CC1 [Example 4, 4-(2-Methoxyphenyl)-N-(1-methylcyclohexyl)-1-piperazinepropanamide] |
